# Measurements reported in patent US8241872B2, “Microorganism producing cyclic compound” (Astellas Pharma Inc., priority 2008, dated 2012).
# Non-standard residues stand in square brackets, D forms with d. Residues, ends and D or L forms follow the SMILES beside them. ξ: configuration not given here. ξOrn(N(OH)Ac) = CC(=O)N(O)CCCC(N)C(=O)O
# How the values were obtained:
# Experiment in all cases: Antifungal activity, broth microdilution method
# Format in all cases: cell-based
# [1] = tested on: Aspergillus flavus ATCC9643
# Method: (§1) Antifungal activities for test fungi shown in Table 15 was determined by a broth microdilution method (Hikaru Kume and Toshikazu Yamazaki, Clinical Microbiology, Vol. 21, No. 5, pp. 573-580, 1994).
# [2] = tested on: Trichophyton mentagrophytes FP2103
# Method: as §1
# [3] = tested on: Aspergillus fumigatus FP1305
# Method: as §1
# [4] = tested on: Pseudallescheria boydii FP1987
# Method: as §1
# Candida glabrata FP1944 = tested on: Candida glabrata FP1944
# Method: as §1
# Fusarium solani FP1930 = tested on: Fusarium solani FP1930
# Method: as §1
# Rhizopus oryzae FP1988 = tested on: Rhizopus oryzae FP1988
# Method: as §1
# [5] = tested on: Trichophyton rubrum FP596
# Method: as §1
# [6] = tested on: Cryptococcus neoformans FP1739
# Method: as §1
# [7] = tested on: Candida parapsilosis FP1980
# Method: as §1
# [8] = tested on: Alternaria alternata AHU9258
# Method: as §1
# [9] = tested on: Candida guilliermondii FP2086
# Method: as §1
# Candida krusei FP1979 = tested on: Candida krusei FP1979
# Method: as §1
# [10] = tested on: Aspergillus terreus SR0174
# Method: as §1
# [11] = tested on: Trichosporon asahi FP2044
# Method: as §1
# [12] = tested on: Aspergillus niger ATCC6275
# Method: as §1
structure (smiles),measurement,setting,value
CC(=O)N(O)CCCC1NC(=O)C(CCCN(O)C(C)=O)NC(=O)C(Cc2ccccc2)NC(=O)C(CC(C)C)NC(=O)C(CC(N)=O)NC(=O)C(CCCN(O)C(C)=O)NC1=O (stereo not shown) [compound B] (cyclo([ξOrn(N(OH)Ac)][ξOrn(N(OH)Ac)][ξOrn(N(OH)Ac)]NLF); configuration not given here),MEC (minimum effective concentration),[1],0.2 µg/mL
same,MEC (minimum effective concentration),[2],0.78 µg/mL
same,MEC (minimum effective concentration),[3],0.31 µg/mL
same,MEC (minimum effective concentration),[4],0.2 µg/mL
same,MEC (minimum effective concentration),Candida glabrata FP1944,0.31 µg/mL
same,MEC (minimum effective concentration),Fusarium solani FP1930,0.2 µg/mL
same,MEC (minimum effective concentration),Rhizopus oryzae FP1988,25 µg/mL
same,MEC (minimum effective concentration),[5],1.25 µg/mL
same,MEC (minimum effective concentration),[6],0.2 µg/mL
same,MEC (minimum effective concentration),[7],0.39 µg/mL
same,MEC (minimum effective concentration),[8],0.1 µg/mL
same,MEC (minimum effective concentration),[9],0.31 µg/mL
same,MEC (minimum effective concentration),Candida krusei FP1979,0.31 µg/mL
same,MEC (minimum effective concentration),[10],0.31 µg/mL
same,MEC (minimum effective concentration),[11],0.2 µg/mL
same,MEC (minimum effective concentration),[12],0.78 µg/mL
